Experimental data taken from PubChem BioAssay AID1963837 (Molecular Pharmacology Branch, DTP, NCI, 2024).

Tested on: 843126-344-R-J1-PDC complex spheroid viability
Test: Anticancer human tumor 843126-344-R-J1-PDC patient-derived melanoma cell line growth inhibition [POLQ]
Conditions: for IC50: curve of first compound; for viability, T/C: stronger effect = lower value
Method in brief: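 Patient-derived tumour cells were co-cultured with HUVEC and mesenchymal stem cells as multicellular spheroids at 37 °C. They were treated with POLQ inhibitors (novobiocin, ART-558, RP6685) alone or combined with other agents. Top concentrations were at or near clinical Cmax (otherwise 10 microM; SN-38 at 1 microM), decreasing in half-log steps.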

[1] = second compound 0.0316 µM, first compound 0.00316 µM
[2] = second compound 0.0316 µM, first compound 0.01 µM
[3] = second compound 0.0316 µM, first compound 0.0316 µM
[4] = second compound 0.0316 µM, first compound 0.1 µM
[5] = second compound 0.0316 µM, first compound 0.316 µM
[6] = second compound 0.0316 µM, first compound 1 µM
[7] = second compound 0.1 µM, first compound 0.00316 µM
[8] = second compound 0.1 µM, first compound 0.01 µM
[9] = second compound 0.1 µM, first compound 0.0316 µM
[10] = second compound 0.1 µM, first compound 0.1 µM
[11] = second compound 0.1 µM, first compound 0.316 µM
[12] = second compound 0.1 µM, first compound 1 µM
[13] = second compound 0.316 µM, first compound 0.00316 µM
[14] = second compound 0.316 µM, first compound 0.01 µM
[15] = second compound 0.316 µM, first compound 0.0316 µM
[16] = second compound 0.316 µM, first compound 0.1 µM
[17] = second compound 0.316 µM, first compound 0.316 µM
[18] = second compound 0.316 µM, first compound 1 µM
[19] = second compound 1 µM, first compound 0.00316 µM
[20] = second compound 1 µM, first compound 0.01 µM
[21] = second compound 1 µM, first compound 0.0316 µM
[22] = second compound 1 µM, first compound 0.1 µM
[23] = second compound 1 µM, first compound 0.316 µM
[24] = second compound 1 µM, first compound 1 µM
[25] = second compound 3.16 µM, first compound 0.00316 µM
[26] = second compound 3.16 µM, first compound 0.01 µM
[27] = second compound 3.16 µM, first compound 0.0316 µM
[28] = second compound 3.16 µM, first compound 0.1 µM
[29] = second compound 3.16 µM, first compound 0.316 µM
[30] = second compound 3.16 µM, first compound 1 µM
[31] = second compound 10 µM, first compound 0.00316 µM
[32] = second compound 10 µM, first compound 0.01 µM
[33] = second compound 10 µM, first compound 0.0316 µM
[34] = second compound 10 µM, first compound 0.1 µM
[35] = second compound 10 µM, first compound 0.316 µM
[36] = second compound 10 µM, first compound 1 µM
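For viability, T/C in this document: spheroids exposed to drugs for seven days before readout.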

SMILES: COc1cccc(OCCCN)c1-c1cc(Nc2cnc(C#N)cn2)n[nH]1 + COC1C(OC(N)=O)C(O)C(Oc2ccc3c(O)c(NC(=O)c4ccc(O)c(CC=C(C)C)c4)c(=O)oc3c2C)OC1(C)C
- IC50 (second compound 0.0316 µM): 87.1 nM
- IC50 (second compound 0.1 µM): 156 nM
- IC50 (second compound 0.316 µM): 135 nM
- IC50 (second compound 1 µM): 347 nM
- IC50 (second compound 3.16 µM): 290 nM
- IC50 (second compound 10 µM): 153 nM
- viability, T/C [1]: 78.6%
- viability, T/C [2]: 85.6%
- viability, T/C [3]: 77.7%
- viability, T/C [4]: 45.8%
- viability, T/C [5]: 46.3%
- viability, T/C [6]: 31.8%
- viability, T/C [7]: 93.3%
- viability, T/C [8]: 81.8%
- viability, T/C [9]: 73.2%
- viability, T/C [10]: 52%
- viability, T/C [11]: 44.1%
- viability, T/C [12]: 34.7%
- viability, T/C [13]: 79.9%
- viability, T/C [14]: 76.8%
- viability, T/C [15]: 65.3%
- viability, T/C [16]: 54.9%
- viability, T/C [17]: 39.8%
- viability, T/C [18]: 38.6%
- viability, T/C [19]: 96%
- viability, T/C [20]: 76.9%
- viability, T/C [21]: 76%
- viability, T/C [22]: 64.7%
- viability, T/C [23]: 52%
- viability, T/C [24]: 36.6%
- viability, T/C [25]: 88.6%
- viability, T/C [26]: 85.2%
- viability, T/C [27]: 65.3%
- viability, T/C [28]: 68.2%
- viability, T/C [29]: 49.4%
- viability, T/C [30]: 31.8%
- viability, T/C [31]: 72.7%
- viability, T/C [32]: 76.2%
- viability, T/C [33]: 70.2%
- viability, T/C [34]: 55.5%
- viability, T/C [35]: 40.8%
- viability, T/C [36]: 37.2%

SMILES: CCc1c2c(nc3ccc(O)cc13)-c1cc3c(c(=O)n1C2)COC(=O)[C@]3(O)CC + Cc1cccc(N(C)C(=O)C2C(O)CCN2c2nc(C)cc(C(F)(F)F)c2C#N)c1
- IC50 (second compound 0.0316 µM): 991 nM
- IC50 (second compound 0.1 µM): 749 nM
- IC50 (second compound 0.316 µM): 400 nM
- IC50 (second compound 1 µM): > 1000 nM
- IC50 (second compound 3.16 µM): > 1000 nM
- IC50 (second compound 10 µM): > 1000 nM
- viability, T/C [1]: 73%
- viability, T/C [2]: 52.8%
- viability, T/C [3]: 66.4%
- viability, T/C [4]: 67.3%
- viability, T/C [5]: 54.6%
- viability, T/C [6]: 50.5%
- viability, T/C [7]: 72.8%
- viability, T/C [8]: 52.8%
- viability, T/C [9]: 60.6%
- viability, T/C [10]: 58.8%
- viability, T/C [11]: 60.8%
- viability, T/C [12]: 42.8%
- viability, T/C [13]: 70.5%
- viability, T/C [14]: 61.6%
- viability, T/C [15]: 58.3%
- viability, T/C [16]: 58.6%
- viability, T/C [17]: 53.6%
- viability, T/C [18]: 43.6%
- viability, T/C [19]: 66.6%
- viability, T/C [20]: 58.5%
- viability, T/C [21]: 55.1%
- viability, T/C [22]: 60.9%
- viability, T/C [23]: 59.6%
- viability, T/C [24]: 44.6%
- viability, T/C [25]: 67.5%
- viability, T/C [26]: 60.9%
- viability, T/C [27]: 50.3%
- viability, T/C [28]: 67.7%
- viability, T/C [29]: 66.1%
- viability, T/C [30]: 45.7%
- viability, T/C [31]: 64.8%
- viability, T/C [32]: 68.3%
- viability, T/C [33]: 67%
- viability, T/C [34]: 66.2%
- viability, T/C [35]: 58.6%
- viability, T/C [36]: 47.8%

SMILES: O=c1[nH]cc(F)c(=O)[nH]1 + COC1C(OC(N)=O)C(O)C(Oc2ccc3c(O)c(NC(=O)c4ccc(O)c(CC=C(C)C)c4)c(=O)oc3c2C)OC1(C)C
- IC50 (second compound 0.0316 µM): > 10000 nM
- IC50 (second compound 0.1 µM): > 10000 nM
- IC50 (second compound 0.316 µM): > 10000 nM
- IC50 (second compound 1 µM): > 10000 nM
- IC50 (second compound 3.16 µM): > 10000 nM
- IC50 (second compound 10 µM): > 10000 nM
- viability, T/C [3]: 97.9%
- viability, T/C [4]: 76.6%
- viability, T/C [5]: 91.9%
- viability, T/C [6]: 102%
- viability, T/C (second compound 0.0316 µM, first compound 3.16 µM): 99.3%
- viability, T/C (second compound 0.0316 µM, first compound 10 µM): 87.7%
- viability, T/C [9]: 99.2%
- viability, T/C [10]: 99%
- viability, T/C [11]: 102%
- viability, T/C [12]: 84.2%
- viability, T/C (second compound 0.1 µM, first compound 3.16 µM): 82.7%
- viability, T/C (second compound 0.1 µM, first compound 10 µM): 73.3%
- viability, T/C [15]: 92.4%
- viability, T/C [16]: 116%
- viability, T/C [17]: 89.5%
- viability, T/C [18]: 81.7%
- viability, T/C (second compound 0.316 µM, first compound 3.16 µM): 75.3%
- viability, T/C (second compound 0.316 µM, first compound 10 µM): 70.4%
- viability, T/C [21]: 76.6%
- viability, T/C [22]: 85.4%
- viability, T/C [23]: 80.3%
- viability, T/C [24]: 90.2%
- viability, T/C (second compound 1 µM, first compound 3.16 µM): 92.8%
- viability, T/C (second compound 1 µM, first compound 10 µM): 64.3%
- viability, T/C [27]: 94.2%
- viability, T/C [28]: 94.3%
- viability, T/C [29]: 89.7%
- viability, T/C [30]: 103%
- viability, T/C (second compound 3.16 µM, first compound 3.16 µM): 75.2%
- viability, T/C (second compound 3.16 µM, first compound 10 µM): 70.4%
- viability, T/C [33]: 78.8%
- viability, T/C [34]: 88.1%
- viability, T/C [35]: 93%
- viability, T/C [36]: 80.6%
- viability, T/C (second compound 10 µM, first compound 3.16 µM): 94.3%
- viability, T/C (second compound 10 µM, first compound 10 µM): 71.5%
